Measured values as given in publication PMC9202104 (BMC Biology, 2022).
Read-outs that look alike come from different tables or passages of the source.

How the values were obtained:
[1] = tested on: ZIKV human strain R103451; test: Lethal ZIKV challenge in adult Ifnar1−/− mice, survival and weight; type: in vivo
Method: Briefly, 7–8-week-old male mice were used, and two separate experiments were performed. […] These mice were i.p. infected with ZIKV (human strain R103451, 200 PFU/mouse) and observed daily for weight changes and survival until 21 dpi. […] Five days later, these mice were sacrificed, and their tissues, including the heart, testis, eye, kidney, and brain, were collected for detection of viral titers by plaque assay, or apoptosis by immunofluorescence staining. Mice losing 20% of initial weight with severe symptoms, including hind limb weakness and paralysis, or 25% of initial weight, were humanely euthanized with an overdose isoflurane in a Bell Jar, followed by cervical dislocation.

[2] = tested on: ZIKV human strain PLCal_ZV; test: Plaque assay, inhibition of ZIKV infection (strain PLCal_ZV); type: cell-based; details: Zika virus, Vero C1008; plaque assay, Vero E6 cells, human strain; read-out: IC50 PLCal_ZV
Method: (§1) After removal of the unbound compounds by centrifugation (after addition of 3% PEG-6000), ZIKV was incubated with Vero E6 cells in 24-well plates at 37°C for 1 h. The cells were then washed with PBS, overlaid with DMEM containing 1% carboxymethyl cellulose and 2% FBS, and cultured at 37°C for 4–5 days, followed by being stained with 0.5% crystal violet. […] Plaques in each well were calculated, and IC50 of compounds for each compound was calculated using the CalcuSyn computer program.

[3] = tested on: 8 human ZIKV strains (PAN2016, R116265, PAN2015, FLR, R103451, PRVABC59, PLCal_ZV, IbH 30656); test: microbe, parasite or virus in culture; type: cell-based; details: Zika virus, read-out: Average IC50 (human strains)
Method: as §1

[4] = tested on: DENV-4-PR-06-65-740; test: Plaque assay, inhibition of DENV-4 infection in LLC-MK2 cells; type: cell-based; details: Dengue virus, DENV4
[5] = biological target: T1, ZIKV NS2B-NS3 protease (Zika virus, UniProt Q32ZE1); test: Fluorescence-based NS2B-NS3 protease inhibition assay; type: biochemical
T1 construct: fused with the genes encoding NS3 protein (residues 1-185) through a linker (Gly4-Thr-Gly4); His6 (C); made in house; host or cells: E. coli
T1 sequence (Q32ZE1 1499-1683, added parts left off, change not shown): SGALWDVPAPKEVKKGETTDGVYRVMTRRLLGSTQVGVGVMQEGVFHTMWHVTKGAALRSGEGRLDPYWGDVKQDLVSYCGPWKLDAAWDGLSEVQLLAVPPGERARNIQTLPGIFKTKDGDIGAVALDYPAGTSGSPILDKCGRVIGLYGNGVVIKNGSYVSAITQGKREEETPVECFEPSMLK
Method: Substrate (benzoyl-norleucinelysine-lysine-arginine 7-amino-4-methylcoumarine (Bz-Nle-Lys-Lys-Arg-AMC, 4 μM)) (Bachem, Torrance, CA, USA) was added and incubated for 10 min. Fluorescence intensity was then measured at 460 nm (with excitation at 355 nm) using a microplate reader (FLUOstar Omega, BMG Labtech, USA). A total of 10 mM Tris-HCl, 20% glycerol, 1 mM CHAPS, and 5% DMSO (pH 8.5) were used as reaction and dilution buffers. Percent inhibition (% inhibition) of protease activity was measured in the presence or absence of serially diluted compounds based on the formula ((1-(NS2B-NS3-substrate-compound)/(NS2B-NS3-substrate))×100).

[6] = tested on: ZIKV human strain R116265; test: Plaque assay, inhibition of ZIKV infection (strain R116265); type: cell-based; details: Zika virus, Vero C1008, Vero E6 cells
Method: as §1

[7] = tested on: ZIKV (PAN2016); test: Time-of-addition experiment in Vero E6 cells; type: cell-based, Zika virus; details: for inhibition at 15 µM: Zika virus, Vero C1008, Vero E6 cells
Method: Briefly, Vero E6 cells (10^5/well) and/or ZIKV were incubated in 24-well plates with or without the above compounds (15 μM) for 1 h before, 1 h after, or the same time during infection of ZIKV (the detailed procedures were described below and published previously). The following six conditions of ZIKV infection were tested: (1) condition 1: pretreatment of the virus. […] The plaque assay was performed following the standard protocol described above and before. (2) condition 2: pretreatment of cells. […] The unbound ZIKV was removed, and the cells were cultured and plaques calculated as in condition 1. (3) Condition 3: attachment. […] After removal of the unbound ZIKV and compounds, the cells were cultured and plaques calculated as in condition 1. (4) Condition 4: cotreatment. […] After removal of the unbound virus and compounds, the cells were cultured and plaques were calculated as in condition 1. (5) condition 5: fusion. Cells were incubated with ZIKV (PAN2016, 300 PFU) at 4°C for 1 h for ZIKV attachment. […] The unbound compounds were removed, and the cells were cultured and plaques calculated as in condition 1. (6) Condition 6: post-entry. Cells were incubated with ZIKV (PAN2016, 100 PFU) at 37°C for 1 h for ZIKV entry. […] The unbound compounds were then removed, and the cells were cultured and calculated for plaques as in condition 1. Since variant conditions may affect the formation of plaques, the use of different PFUs can ensure that the number of plaques in the DMSO control group is about 100/well for each condition.

[8] = biological target: T2, ZIKV EDIII protein (Zika virus, UniProt A0A024B7W1); test: SPR binding to ZIKV EDIII
T2 construct: EDIII (residues 298-409 in E protein containing a C-terminal human Fc tag); human Fc (C)
T2 sequence (A0A024B7W1 588-699): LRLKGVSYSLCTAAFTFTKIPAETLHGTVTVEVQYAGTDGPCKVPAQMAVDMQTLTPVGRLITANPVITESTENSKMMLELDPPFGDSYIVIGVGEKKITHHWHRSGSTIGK
Method: (GE Healthcare, Port Washington, NY, USA). Briefly, ZIKV EDIII protein or NS2B-NS3 protein was immobilized on a sensor chip (CM5) using the Amine Coupling Kit (GE Healthcare). Serially diluted ST087010 was added as analytes, and HBS-EP with 10% DMSO (10 mM HEPES, 150 mM NaCl, 3 mM EDTA, 0.05% Tween-20, 10% DMSO, pH 7.4) was used as a running buffer. Biacore BK evaluation software (version 1.1) was applied to analyze the data, and the curve was fitted with a 1:1 binding model.

[9] = tested on: DENV-2-V594; test: Plaque assay, inhibition of DENV-2 infection in LLC-MK2 cells; type: cell-based; details: Dengue virus, DENV2
[10] = in vitro; type: cell-based; details: rhesus monkey
Method: Briefly, compounds at 2-fold serial dilutions were added to the respective cells (2.0×10^4/well) pre-seeded in 96-well plates. The cells were cultured at 37°C in the presence of 5% CO2 for 3 days, […] incubated with CCK8 solution, followed by measurement of absorbance at 450 nm (A450 value), using a microplate reader (Infinite F200PRO, Tecan, Morrisville, NC, USA). CC50 of compounds was calculated using the CalcuSyn program.

[11] = tested on: ZIKV human strain PAN2015; test: Plaque assay, inhibition of ZIKV infection (strain PAN2015); type: cell-based; details: Zika virus, Vero C1008, Vero E6 cells
Method: as §1

[12] = tested on: ZIKV human strain PRVABC59; test: Plaque assay, inhibition of ZIKV infection (strain PRVABC59); type: cell-based; details: Zika virus, Vero C1008; plaque assay, Vero E6 cells, human strain; read-out: IC50 PRVABC59
Method: as §1

With Cc1cc2c(C(C)C)c(O)c(O)c(/C=N/n3c(=O)[nH][nH]c3=O)c2c(O)c1-c1c(C)cc2c(C(C)C)c(O)c(O)c(/C=N/n3c(=O)[nH][nH]c3=O)c2c1O [ST087010] the “Mice protected from death (survival)” value ([1]; 20 mg/kg i.p. 12 h before and 6, 24, 48 h post-infection, ZIKV R103451 200 PFU, observed 21 days) was 50%, the Weight loss ([1]; 20 mg/kg i.p., ZIKV R103451 200 PFU, ST087010 figure during 6–12 dpi) was “less than 25%” and the “Body weight relative to weight before the virus infection” value ([1]; 20 mg/kg i.p., ZIKV R103451, until 21 dpi) was 85%. The IC50 [2] was 2200 nM, the IC50 [3] was 2900 nM and the IC50 [4] was 2980 ± 180 nM. For the same molecule, the IC50 [5] was 4.84 µM, the IC50 [6] was 2900 nM and the “Inhibition of ZIKV infection, condition 2: pretreatment of cells” value ([7]; 15 μM, Vero E6 cells) was “no, or little”. For the same molecule, the “Inhibition of ZIKV infection, condition 4: cotreatment” value ([7]; 15 μM, Vero E6 cells) was “no, or little”, the “Inhibition of ZIKV infection, condition 5: fusion” value ([7]; 15 μM, Vero E6 cells) was “no, or little” and the “Inhibition of ZIKV infection, condition 1: pretreatment of the virus” value ([7]; 15 μM, virus incubated with compound at 37°C for 1 h before Vero E6 cells) was “almost completely inhibited”. For the same molecule, the inhibition at 15 µM ([7]; 4°C 1 h, read-out: Inhibition of ZIKV infection, condition 3: attachment) was under 40%, the inhibition at 15 µM ([7]; read-out: Inhibition of ZIKV infection, condition 6: post-entry) was under 20% and the Kd [8] was 4.95 µM. For the same molecule, the IC50 [9] was 3.19 ± 0.01 µM, the CC50 at 3 days [10] was 47.2 ± 1.35 µM and the IC50 [11] was 3.5 µM. For the same molecule, the IC50 [12] was 2400 nM.
